The values that follow come from patent publication US20160251403A1, “PEPTIDE COMBINATIONS AND USES THEREOF IN TREATING DUST MITE ALLERGY” (ALK-ABELLO A/S, priority 2013, published 2016).

One test addresses DQA10101-DQB10501 (Homo sapiens, UniProt P01909+P01920, A157S/A45G/A70V/C70R/D89V/E106S/E118A/E183D/E77G/F83G/G63E/H151Q/H199R/H252R/H253Q/I129T/I235V/I88M/INS77G/K197Q/L107V/L117V/L119Y/L178F/L71W/L74F/L85Q/L91A/L98M/M46L/N214S/P87R/Q116E/Q256R/Q57E/Q76K/R102G/R240Q/R75S/R78G/S102Y/S185I/S41F/S97I/T103A/T109R/T121G/T122I/T172A/T86R/V148I/V68A/V73E/Y34C/Y58G/Y62H). Kind of test: Competitive MHC class II binding assay, DQA10101-DQB10501. The settings on record: positive binding at cutoff 1000 nM; read-out: HLA-DQA10101-DQB10501.

The target of another test is DRB1_0405 (Homo sapiens, UniProt P01903+P01911, A100R/A169T/D86S/F76Y/I96L/K127E/L162R/M171V/N62H/P40V/Q125Y/R42H/S133A/S149N/S66Y/V115G/V209L/W38E). Kind of test: Competitive MHC class II binding assay, DRB1_0405.
The next test addresses DRB1_0701 (Homo sapiens, UniProt P01903+P01911, A100R/A102G/A103Q/D57E/D86V/E43K/F76Y/K127E/L162R/M171V/P40G/Q125H/Q99D/R33Q/R42Y/R54Q/S133A/S66F/T210M/V115G/Y107V/Y59L/Y89S). Kind of test: Competitive MHC class II binding assay, DRB1_0701.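 Also: displacement of a radiolabeled reference peptide from purified HLA class II protein, with complex-bound radioactivity counted after 2–4 days of incubation and six concentrations spanning a 100,000-fold range.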
The next test deals with DRB1_0802 (Homo sapiens, UniProt P01903+P01911, A100R/A103L/A169T/F76Y/H45Y/I96F/K41T/L162R/M171V/P40S/Q125H/Q178H/Q39Y/Q99D/R218S/R42G/S66Y/V115G/W38E). Kind of test: Competitive MHC class II binding assay, DRB1_0802.
A further test concerns the target T1, DPA10103-DPB10201 (Homo sapiens, UniProt P04440+P20036, A65V/A84D/A85E/K98E).
T1 sequence (P20036 29-260): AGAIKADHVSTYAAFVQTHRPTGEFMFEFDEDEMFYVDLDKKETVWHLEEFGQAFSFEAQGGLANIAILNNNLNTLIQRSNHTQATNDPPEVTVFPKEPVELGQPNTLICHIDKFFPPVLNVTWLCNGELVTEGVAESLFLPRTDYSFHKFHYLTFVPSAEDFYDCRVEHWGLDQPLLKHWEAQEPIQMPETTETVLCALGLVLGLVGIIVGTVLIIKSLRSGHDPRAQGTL
T1 sequence (P04440 30-258 A65V/A84D/A85E/K98E): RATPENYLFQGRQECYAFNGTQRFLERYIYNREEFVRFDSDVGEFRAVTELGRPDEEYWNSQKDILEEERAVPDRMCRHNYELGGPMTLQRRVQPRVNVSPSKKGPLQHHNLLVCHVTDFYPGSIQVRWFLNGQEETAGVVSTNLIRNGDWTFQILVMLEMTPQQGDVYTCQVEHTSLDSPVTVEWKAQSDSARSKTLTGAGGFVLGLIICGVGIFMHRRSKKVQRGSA
Kind of test: Competitive MHC class II binding assay, DPA10103-DPB10201.

The next test deals with T2, DPA10103-DPB10402 (Homo sapiens, UniProt P04440+P20036, A65V/A84D/A85E/L207M).
T2 sequence (P20036 29-260): T1 sequence (P20036 29-260)
T2 sequence (P04440 30-258 A65V/A84D/A85E): T1 sequence (P04440 30-258 A65V/A84D/A85E/K98E) with E69K
The test is described as follows: Competitive MHC class II binding assay, DPA10103-DPB10402.

A further test deals with DQA10501-DQB10201 (Homo sapiens, UniProt P01909+P01920, A45G/A70V/D89A/E106A/E77G/E98D/H199R/L107V/N214S/P84L/P87L/T103K/T109R/T172A/T60S/V78E/V99I/Y58L/Y62S/Y69I/Y79F). Kind of test: Competitive MHC class II binding assay, DQA10501-DQB10201.
Another test concerns the target DQA10501-DQB10301 (Homo sapiens, UniProt P01909+P01920). The test is described as follows: Competitive MHC class II binding assay, DQA10501-DQB10301.
The target of a further test is DRB1_1501 (Homo sapiens, UniProt P01903+P01911). Kind of test: Competitive MHC class II binding assay, DRB1_1501.
The target in the next test is DRB3_0101 (Homo sapiens, UniProt P01903+P79483). The test is described as follows: Competitive MHC class II binding assay, DRB3_0101.

Positions count from the first letter of the chain named. pIC50: −log10 of the molar value. No end group written: not given here.

In the case of `CC[C@H](C)[C@H](NC(=O)CNC(=O)[C@@H](NC(=O)[C@@H](NC(=O)[C@@H](NC(=O)[C@H](C)NC(=O)[C@@H](NC(=O)[C@H](C)NC(=O)[C@H](CO)NC(=O)[C@H](Cc1c[nH]cn1)NC(=O)[C@@H](NC(=O)[C@H](CCC(N)=O)NC(=O)[C@H](C)NC(=O)[C@H](CC(C)C)NC(=O)[C@H](C)NC(=O)[C@H](CCC(=O)O)NC(=O)[C@@H](N)CCCNC(=N)N)[C@@H](C)O)[C@@H](C)CC)C(C)C)[C@@H](C)CC)[C@@H](C)CC)C(=O)N[C@@H](CCCCN)C(=O)N[C@@H](CC(=O)O)C(=O)N[C@@H](CC(C)C)C(=O)N[C@@H](CC(=O)O)C(=O)N[C@@H](C)C(=O)O` [pep-130], the pIC50 on DQA10101-DQB10501, at DRB1_0405, on DRB1_0701, on DRB1_0802, at DPA10103-DPB10201 and at DPA10103-DPB10402 was above 6.00 throughout. Moreover, the pIC50 at DQA10501-DQB10201 and on DQA10501-DQB10301 was above 6.00 throughout.

Turning to DNGYGYFAANIDLMMIEE [pep-010], the pIC50 at DQA10101-DQB10501, on DRB1_0405, at DRB1_0701, on DRB1_0802, at DRB1_1501 and at DRB3_0101 was above 6.00 in each case. The pIC50 on DPA10103-DPB10201, on DPA10103-DPB10402, on DQA10501-DQB10201 and on DQA10501-DQB10301 was above 6.00 throughout. Also, the “binding to HLA Class II allele DRB3_0101” value on DRB3_0101 (as shown in Table 16a) was “binds to at least the same alleles as peptide 041”. Besides, the “binding to HLA Class II allele DQA10501-DQB10201” value on DQA10501-DQB10201 (as shown in Table 16a) is recorded as “binds to at least the same alleles as peptide 041”.

Turning to GSGSSWAFSGVAATESAYLA [pep-044], the pIC50 on DQA10101-DQB10501, at DRB1_0405, on DRB1_0701, at DRB1_1501, on DPA10103-DPB10402 and at DQA10501-DQB10201 was above 6.00 in each case. For the same compound, at DQA10501-DQB10301, the pIC50 is above 6.00.

As to HAVNIVGYSNAQGVDYWIVR [pep-058], the pIC50 on DQA10101-DQB10501, at DRB1_0405, at DRB1_0701, on DRB1_0802, at DRB1_1501 and at DRB3_0101 was above 6.00 each time. Further, the pIC50 at DQA10501-DQB10201 and at DQA10501-DQB10301 was above 6.00 in each case.

Turning to LVGDNGVLASAIATHAKIRD [pep-110], the pIC50 on DRB1_0802, on DRB3_0101 and at DQA10501-DQB10301 was above 6.00 each time.

Consider LVKGQQYDIKYTWNVPKIAPK [pep-131], for which the pIC50 at DRB1_0701, at DRB1_0802 and on DPA10103-DPB10201 was above 6.00 each time.
